Laboratory results: ChEMBL document CHEMBL3507680, “University of Dundee, Gates Library screen for HepG2 cell viability”

Experiment: Human HepG2 cell viability assay in 384 well format
Type: toxicity, cell-based
Set-up: dose 125 nL, time 70.5 hour; concentration not given beside the values
Conditions: HepG2 cells, read-out: Inhibition

Structure (SMILES)	cytotoxicity at 70.5 h [%]
COc1ccc(-c2nnc(C(C)N3CCOC(C)(C)C3)o2)cc1 (stereo unspecified)	-5.79
CCc1noc(C(C)N2CCC(C(=O)Nc3cnn(CC)c3)CC2)n1 (stereo unspecified)	41.4
CC(C)(C)c1ccc(CN2C[C@H]3C[C@H](O)C[C@H]3C2)c(OCC(N)=O)c1	-2.7
CC(=O)N1CCC(c2ccnc(Nc3cc(C(F)(F)F)ccn3)n2)C1 (stereo unspecified)	19.8
COCC1CN(CC2CCOCC2)Cc2cn(CC3CCCC3)nc21 (stereo unspecified)	-7.67
O=C(c1cc(=O)[nH]c(=O)[nH]1)N1CCCCC1c1nc2cc(F)ccc2[nH]1 (stereo unspecified)	-6.77
CCS(=O)(=O)N1CCCC2(CCCN2Cc2cccc(Cl)c2)C1 (stereo unspecified)	-4.53
Cn1ccnc1CN1CCN(Cc2noc(-c3ccccc3)n2)CC1	-4.14
Cc1nccn1-c1cc(CNC(=O)C2CCC(=O)N2)ccn1 (stereo unspecified)	-6.29
O=C(OCc1cccs1)c1cccc(C(=O)N2CCCC2)n1	-8.17
COCCNC(=O)NCc1ccc(-n2ccc(C(F)(F)F)n2)cc1	-7.44
CCCC(=O)N1CCOC2(COCCN(CC(=O)NC)C2)C1 (stereo unspecified)	-10.5
CCCN1CCC(CNC(=O)C2(c3cc(C)cc(C)c3)CCC2)C1 (stereo unspecified)	16.9
CC(C)C(O)C(C)(C)CNC(=O)NCc1ccc(-n2cncn2)cc1 (stereo unspecified)	-1.82
CC(C)N(C)C(=O)c1coc(CN2CCN(c3ccccc3F)CC2)n1	-3.77
CC(C)NC(=O)CN1CCCNCC1	-0.253
Cc1cccc(C)c1OCC(=O)N1CCOCC1c1ncon1 (stereo unspecified)	-2.55
COCCCN(CCOC)Cc1nc2c(cnn2C)c(=O)[nH]1	-12.6
Cc1nn(C)c(Cl)c1C1CCCN1CCc1ccccn1 (stereo unspecified)	1.44

Structure (SMILES)	cytotoxicity at 70.5 h [%]
O=C(c1ccc(=O)[nH]c1)N1C[C@@H]2CC[C@H](C1)N(Cc1ccccc1)C2	-8.28
CCc1cnc(CN(C(C)=O)C2CCN(CCc3ccncc3)C2)o1 (stereo unspecified)	-1.81
Cc1n[nH]c(C)c1NC(=O)c1cccc(OCC(F)(F)F)n1	-10.8
CNC(=O)NC(=O)CCSCc1cc(F)cc2cccnc12	-27.1
COCC1CN(C(=O)c2ccoc2C)Cc2nccn2C1 (stereo unspecified)	22.7
O=C(NCC1CC1)C1CN(C(=O)c2ccnnc2)CC12CCOCC2 (stereo unspecified)	-2.63
Cc1ccc(CN2CC[C@@H]3[C@@H](CO[C@H]3CN3CCN(C)CC3)C2)s1	14.3
CC(=O)N1CCC(N2CCN(Cc3ccc(C)o3)C(CCO)C2)CC1 (stereo unspecified)	-6.87
NC(=O)c1ccc(C2CCCNC2)nc1 (stereo unspecified)	-4.69
O=C(COC1CCCCC1)Nc1ccn(CCc2ccncc2)n1	-7.83
Cc1c[nH]c(CN2CCOC(c3ccc(F)cc3)C2)c(C)c1=O (stereo unspecified)	-3.86
Cc1nnc(N2C[C@H](OCc3cccnc3)[C@H]3OCCC[C@H]32)s1	10
CC(C)c1noc(CCCC(=O)NCCOc2ccccc2)n1	-8.16
CCOCCN1CCN(c2ccc(C#N)cn2)CC1	-9.92
CSc1ncc(CNC(C)c2cnn(-c3ccc(F)cc3F)c2C)cn1 (stereo unspecified)	-2.86
CC(=O)N1C[C@@H](c2ccsc2)[C@@H]2CN(Cc3ccccc3C)CC[C@@H]21	18.9
COc1ccc(-c2cc[nH]n2)cc1CNC1CCCC1	-7.14
Cc1noc(C(C)C)c1C(=O)NCc1cc(F)cc(F)c1	-4.07
C[S+]([O-])c1nncn1CC(=O)c1ccc(OC(F)F)cc1 (stereo unspecified)	-2.01

Structure (SMILES)	cytotoxicity at 70.5 h [%]
CC(=O)NC(Cc1c[nH]c2cc(F)ccc12)C(=O)Nc1cnn(C)c1 (stereo unspecified)	1.79
COc1cc(Br)c(CNc2ccn(CCC(N)=O)n2)cc1OC	-4.79
O=C(NCCNc1ccccn1)NCC1CCS(=O)(=O)C1 (stereo unspecified)	4.42
NC(=O)c1ccccc1NC(=O)CCN1CCN(CCO)CC1	-10.4
Cc1ncc2c(n1)CN(Cc1nnc(-c3ccccc3)o1)CC2	-7.67
CCCc1nc(C)c(C(=O)NCCN2CCCCC2)s1	-1.37
Nc1cc2c(nn1)CCN(C(=O)C1CCc3ccccc31)C2 (stereo unspecified)	-11.2
CN(C)c1ncccc1NC(=O)COC1CCCC1	-5.74
Cc1cc(=O)[nH]c(=O)n1-c1cccc(Cl)c1Cl	-12.3
CN(CC(N)=O)C(=O)c1cn(-c2ccc(Br)cc2)cn1	23.1
COc1ccc(CNC(C)c2cnc3cc(C)nn3c2C)cc1 (stereo unspecified)	-2.4
CN(C)C(=O)N[C@@H]1CN(Cc2ccc3c(c2)OCO3)[C@@H]2CCCO[C@@H]21	3.25
O=C(NCC1CCC2(CCNCC2)CO1)c1ccno1 (stereo unspecified)	3.09
CCOc1ccc(CN[C@@H]2COC[C@H]2c2ccc(F)cc2)cc1	29.1
CCNc1ncc(C(=O)N(C)C(C)c2ccc3c(c2)OCCO3)cn1 (stereo unspecified)	-2.94
Cc1noc(C2CCC3(CCN(C(=O)c4cnccn4)CC3)O2)n1 (stereo unspecified)	3.99
COc1cccc(CN2CCc3nc(C(N)=O)sc3CC2)c1	-7.05
CCn1ncc(CN2CCCC(C(=O)c3ccc(Cl)cc3)C2)c1C (stereo unspecified)	-6.46
